# Tested on: tobacco cutworms (Spodoptera litura)
# Test: Test Example 2: tobacco cutworm larvae on treated artificial feed
# Format: in vivo
# Details: Spodoptera litura, 144 h; 150 ppm solution, 2 ml in 13 g artificial feed; 4th instar larvae; six days after; read-out: Mortality (%)
# Source text: The emulsifiable concentrates of the following present compounds obtained according to Formulation example 2 were each diluted with water to obtain respective 667 times dilution aqueous solutions (corresponding to 150 ppm) containing said compounds, respectively. Two ml of thus diluted solutions were impregnated into the artificial feeds (13 g) for tobacco cutworms (Spodoptera litura) and thus prepared feeds were placed in polyethylene cups of 11 cm in diameter, respectively. Ten of the 4th instar larvae were liberated thereon.
# Six days after, the dead and alive of the larvae were examined to calculate the mortality (two replications).
row,Compound,mortality at 150 ppm [%]
1,C#CC(CCCc1ccc(F)c(Oc2ccccc2)c1)c1ccc(OCC)cc1 (centres unmarked) [(43)],100
2,C#CC(C)(CCCc1ccc(F)c(Oc2ccc(Cl)cc2)c1)c1ccc(OCC)cc1 (centres unmarked) [(34)],100
3,C#CC(C)(CCCc1ccc(F)c(Oc2ccccc2)n1)c1ccc(OCC)cc1 (centres unmarked) [(20)],100
4,C#CC(C)(CCCc1ccc(F)c(Oc2ccccc2)c1)c1ccc(OC(F)F)cc1 (centres unmarked) [(6)],100
5,C#CC(C)(CCCc1ccc(F)c(Nc2ccccc2)c1)c1ccc(OCC)cc1 (centres unmarked) [(21)],100
6,C#CC(C)(CCCc1ccc(F)c(Oc2ccccc2)c1)c1ccc(F)cc1 (centres unmarked) [(9)],100

# Tested on: houseflies (Musca domestica) of WHO strains
# Test: Test Example 6: housefly filter paper and sucrose bait test
# Format: in vivo
# Details: 0.7 ml on filter paper with sucrose bait, adult females, after 48 hours, read-out: LC50 value (ppm)
# Method: On the bottom of a polyethylene cup of 5.5 cm- in diameter was placed a piece of filter paper of the same size as the bottom, and 0.7 ml of a test solution, prepared by diluting the emulsifiable concentrates of the following present compounds and control compounds prepared according to Formulation example 2 to a prescribed concentration with water, was added dropwise to the filter paper. Thirty milligrams of sucrose were uniformly placed on the filter paper as bait. Thereafter, 10 adult female houseflies (Musca domestica) of WHO strains were liberated in the cup, which was then covered with a lid. After 48 hours, the dead and alive were examined to obtain LC50 value (50% lethal concentration) (two replications).
row,Compound,LC50 [µg/mL]
1,"CCOc1ccc(C(C)(C)COCc2cccc(Oc3ccccc3)c2)cc1 [(B), reference compound]",28
2,C#CC(C)(CCCc1ccc(F)c(Oc2ccccc2)c1)c1ccc(OC(F)F)cc1 (centres unmarked) [(6)],15

# Tested on: brown rice planthoppers (Nila^parvata luqens)
# Test: Test Example 7: spray on potted rice plants, brown rice planthopper, residual effect
# Format: in vivo
# Details: 20 h; 100 ppm spray, 20 ml/2 pots; residual effect; twenty hours after liberation; read-out: Mortality (%) liberated 4 days after application
# Method: The emulsifiable concentrates of the following compounds and control compounds obtained according to Formulation example 2 were each diluted with water one thousand times (corresponding to 100 ppm) and each of thus prepared solutions was sprayed at the rate of 20 ml/2 pots to the rice plant seedlings planted in Wagner pots having a surface area of one ten thousandth are. After air-drying, the treated plants were covered with the iron wire cages, and about 15 adults of brown rice planthoppers (Nila^parvata luqens) were liberated thereto. Further, about 15 adults thereof were also liberated thereto 4 days after the application to examine the residual effects. Twenty hours after each liberation, the dead and alive adults were examined to calculate the mortality.
row,Compound,mortality at 100 ppm [%]
1,"CCOc1ccc(C(C)(C)COCc2cccc(Oc3ccccc3)c2)cc1 [(B), reference compound]",65

# Same assay, conditions: 20 h; 100 ppm spray, 20 ml/2 pots; twenty hours after liberation; read-out: Mortality (%) liberated just after air-drying
row,Compound,mortality at 100 ppm [%]
1,"CCOc1ccc(C(C)(C)COCc2cccc(Oc3ccccc3)c2)cc1 [(B), reference compound]",10

# Tested on: rice stem borer (Chilo suppressalis)
# Test: Test Example 5: rice stem borer larvae on treated artificial feed
# Format: in vivo
# Details: 1 ml solution in artificial feed, larvae 10 days old, read-out: LC50 value (ppm)
# Source text: The emulsifiable concentrates of the following present compounds and control compounds obtained according to Formulation example 2 were each diluted with water to a prescribed concentration, and one ml each of thus prepared solutions was impregnated into the artificial feeds for rice stem borer (Chilo suppressalis) which had been previously prepared in polyethylene cups of 5.5 cm in diameter, respectively. Ten of the larvae of the 10 days old were liberated thereon. The dead and alive larvae were examined to obtain LC50 value (50% lethal concentration) (two replications).
row,Compound,LC50 [µg/mL]
1,"CCOc1ccc(C(C)(C)COCc2cccc(Oc3ccccc3)c2)cc1 [(B), reference compound]",7.4
2,C#CC(C)(CCCc1ccc(F)c(Oc2ccc(Cl)cc2)c1)c1ccc(OCC)cc1 (centres unmarked) [(34)],4.2
3,C#CC(C)(CCCc1ccc(F)c(Oc2ccccc2)c1)c1ccc(OC(F)F)cc1 (centres unmarked) [(6)],1.9
4,C#CC(C)(CCCc1ccc(F)c(Nc2ccccc2)c1)c1ccc(OCC)cc1 (centres unmarked) [(21)],1.5
5,C#CC(C)(CCCc1ccc(F)c(Oc2ccccc2)c1)c1ccc(F)cc1 (centres unmarked) [(9)],4.2

# Tested on: common mosquito (Culex pipiens pallens)
# Test: Test Example 1: common mosquito larvae in diluted emulsifiable concentrate, mortality and emergence inhibition
# Format: in vivo
# Details: Culex pipiens, 24 h; 3.5 ppm; 20 last instar larvae; after one day; read-out: Mortality
# Method: The emulsifiable concentrates of the following present compounds obtained according to Formulation example 2 were each diluted with water so as to obtain respective aqueous solutions containing 3.5 ppm of said compounds, respectively. One hundred ml of thus diluted aqueous solutions were poured into respective polyethylene cups of 180 ml volume, and 20 of the last instar larvae of common mosquito (Culex pipiens pallens) were liberated thereto. After one day, the dead or alive of the larvae were examined.
# Thereafter, the feed was added to respective cups and the number of emerged pupae of the respective cups was counted when all the pupae of no treatment group had emerged to calculate the inhibitory ratios of the emergence.
# The mortality and the inhibitory ratio of the emergence are shown according to the following three criteria: • mortality: A; 90% or more, • B; less than 90% to 10%, • C; less than 10%. • inhibitory: A; 90% or more, ratio of • emergence B; less than 90% to 80% • C; less than 80%.
row,Compound,mortality at 3.5 ppm [%]
1,C#CC(CCCc1ccc(F)c(Oc2ccccc2)c1)c1ccc(OCC)cc1 (centres unmarked) [(43)],> 90
2,C#CC(C)(CCCc1ccc(F)c(Oc2ccc(Cl)cc2)c1)c1ccc(OCC)cc1 (centres unmarked) [(34)],> 90
3,C#CC(C)(CCCc1ccc(F)c(Oc2ccccc2)n1)c1ccc(OCC)cc1 (centres unmarked) [(20)],> 90
4,C#CC(C)(CCCc1ccc(F)c(Oc2ccccc2)c1)c1ccc(OC(F)F)cc1 (centres unmarked) [(6)],> 90
5,C#CC(C)(CCCc1ccc(F)c(Nc2ccccc2)c1)c1ccc(OCC)cc1 (centres unmarked) [(21)],> 90
6,C#CC(C)(CCCc1ccc(F)c(Oc2ccccc2)c1)c1ccc(F)cc1 (centres unmarked) [(9)],> 90

# Same assay, conditions: Culex pipiens; 3.5 ppm; counted when all pupae of no treatment group had emerged; read-out: Inhibitory ratio of emergence
row,Compound,pest or weed control at 3.5 ppm [%]
1,C#CC(CCCc1ccc(F)c(Oc2ccccc2)c1)c1ccc(OCC)cc1 (centres unmarked) [(43)],> 90
2,C#CC(C)(CCCc1ccc(F)c(Oc2ccc(Cl)cc2)c1)c1ccc(OCC)cc1 (centres unmarked) [(34)],> 90
3,C#CC(C)(CCCc1ccc(F)c(Oc2ccccc2)n1)c1ccc(OCC)cc1 (centres unmarked) [(20)],> 90
4,C#CC(C)(CCCc1ccc(F)c(Oc2ccccc2)c1)c1ccc(OC(F)F)cc1 (centres unmarked) [(6)],> 90
5,C#CC(C)(CCCc1ccc(F)c(Nc2ccccc2)c1)c1ccc(OCC)cc1 (centres unmarked) [(21)],> 90
6,C#CC(C)(CCCc1ccc(F)c(Oc2ccccc2)c1)c1ccc(F)cc1 (centres unmarked) [(9)],> 90

# Tested on: carmine spider mite (Tetranychus cinnabarinus)
# Test: Test Example 8: carmine spider mite on potted kidney bean, degree of damage
# Format: in vivo
# Details: 500 ppm spray 10 ml/pot plus 2 ml soil treatment; after 8 days
# Method: The female adults of carmine spider mite (Tetranychus cinnabarinus) were put at a rate of 10 adults/leaf on the leaves of potted kidney bean (at the primordial leaf stage) which had elapsed 7 days after sowing, and placed in a constant-temperature room kept at 25°C. After 6 days, the 200-fold aqueous dilute solutions (corresponding to 500 ppm), prepared from the emulsifiable concentrates of the following present compounds and control compounds prepared according to Formulation example 2, were each sprayed at a rate of 10 ml/pot on a turn table. At the same time, the soil in the pot was treated with 2 ml of each aqueous solution. After 8 days, the degree of damage of the plant by the mite was examined.
# Criteria of the effect: • - : No damage is observed. • + : Slight damage is observed. • ++: The same damage as in the untreated plot is observed.
row,Compound,Degree of damage
1,"CCOc1ccc(C(C)(C)COCc2cccc(Oc3ccccc3)c2)cc1 [(B), reference compound]",- ~ ++
2,C#CC(CCCc1ccc(F)c(Oc2ccccc2)c1)c1ccc(OCC)cc1 (centres unmarked) [(43)],- ~ +
3,C#CC(C)(CCCc1ccc(F)c(Oc2ccccc2)n1)c1ccc(OCC)cc1 (centres unmarked) [(20)],- ~ +

# Tested on: not listed separately
# Test: Test Example 9: fish toxicity test
# Format: in vivo, Cyprinida carpio
# Details: water; young carp; forty-eight hours; 25 ± 1°C; Probit method; read-out: LC50 value (ppm)
# Method: Twenty liters of each of the aqueous solutions containing the prescribed concentrations of the present compounds and comparative control one, and 10 young carp were liberated thereto. Forty-eight hours after, the dead and alive carp were examined to obtain LC50 value, (50% lethal concentration) according to Probit method. All the tests were carried out in thermostatic aquaria whose temperatures were kept at 25 ± 1°C.
# Tested fish: young Japanese carp (Cyprinida carpio) Average body length ± S.D.: 2.94 ± 0.19 cm. Average.body weight ± S.D.: 0.65 ± 0.13 g.
row,Compound,LC50 at 48 h [µg/mL]
1,"CCOC(=O)CC(SP(=S)(OC)OC)C(=O)OCC (centres unmarked) [(D), Malathion, reference compound]",4.5

# Tested on: resistant strain of green rice leafhopper (Nephotetix cincticeps)
# Test: Test Example 3: rice seedling dip test, resistant green rice leafhopper
# Format: in vivo
# Details: Nephotettix cincticeps, 24 h, read-out: LC50 value (ppm), rice seedlings dipped 1 minute; adults of resistant strain; after one day
# Method: The emulsifiable concentrates of the following present compounds and control compounds obtained according to Formulation example 2 were each diluted with water to a prescribed concentration, and rice seedlings (about 12 cm in length) were dipped for 1 minute in the resulting aqueous dilute solutions. After air-drying, the seedlings were placed in test tube, and 10 adults of a resistant strain of green rice leafhopper (Nephotetix cincticeps) were liberated in the tube. After one day, the dead and alive of the adults were examined to obtain LC50 (50% lethal concentration)(two replications).
row,Compound,LC50 [µg/mL]
1,"CCOC(=O)CC(SP(=S)(OC)OC)C(=O)OCC (centres unmarked) [(D), Malathion, reference compound]",~500

# Same assay, conditions: Nephotettix cincticeps, 24 h, rice seedlings dipped 1 minute; adults of resistant strain; after one day; read-out: LC50 value (ppm)
row,Compound,LC50 [µg/mL]
1,C#CC(CCCc1ccc(F)c(Oc2ccccc2)c1)c1ccc(OCC)cc1 (centres unmarked) [(43)],74
2,C#CC(C)(CCCc1ccc(F)c(Oc2ccc(Cl)cc2)c1)c1ccc(OCC)cc1 (centres unmarked) [(34)],18
3,C#CC(C)(CCCc1ccc(F)c(Oc2ccccc2)n1)c1ccc(OCC)cc1 (centres unmarked) [(20)],74
4,C#CC(C)(CCCc1ccc(F)c(Oc2ccccc2)c1)c1ccc(OC(F)F)cc1 (centres unmarked) [(6)],36
5,C#CC(C)(CCCc1ccc(F)c(Nc2ccccc2)c1)c1ccc(OCC)cc1 (centres unmarked) [(21)],24
6,C#CC(C)(CCCc1ccc(F)c(Oc2ccccc2)c1)c1ccc(F)cc1 (centres unmarked) [(9)],49

# Tested on: brown rice planthopper (Nila^parvata luqens)
# Test: Test Example 4: rice seedling dip test, brown rice planthopper
# Format: in vivo
# Details: 24 h; rice seedlings dipped 1 minute; adults; after one day; read-out: LC50 value (ppm)
# Method: The emulsifiable concentrates of the-following present compounds and control compounds obtained according to Formulation example 2 were each diluted with water to a prescribed concentration, and the rice seedlings (about 12 cm in length) were dipped for 1 minute in the resulting aqueous dilute solutions. After air-drying, the seedlings were placed in a test tube, and 10 adults of brown rice planthopper (Nila^parvata luqens) were liberated in the tube. After one day, the dead and alive of the adults were examined to obtain LC50 value (50% lethal concentration)(two replications).
row,Compound,LC50 [µg/mL]
1,"CCOc1ccc(C(C)(C)COCc2cccc(Oc3ccccc3)c2)cc1 [(B), reference compound]",110
2,C#CC(C)(CCCc1ccc(F)c(Oc2ccccc2)n1)c1ccc(OCC)cc1 (centres unmarked) [(20)],25
3,C#CC(C)(CCCc1ccc(F)c(Nc2ccccc2)c1)c1ccc(OCC)cc1 (centres unmarked) [(21)],15
